Results from PubChem BioAssay (NCI).
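Values below derive from 48-hour exposures of cells grown in 96-well plates, with endpoints linearly interpolated between the two concentrations bracketing the appropriate inhibition level. At the TGI there is no net growth.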

Key:
Test in all cases: NCI anticancer screen, dose series, 48 h
[1] = system: 786-0 renal
[2] = system: A498 renal
[3] = system: A549 NSCLC
[4] = system: ACHN renal
[5] = system: CAKI-1 renal
[6] = system: CCRF-CEM leukemia
[7] = system: COLO 205 colon
[8] = system: DLD-1 colon
[9] = system: DMS 114 small cell lung
[10] = system: EKVX NSCLC
[11] = system: HCC-2998 colon
[12] = system: HCT-116 colon
[13] = system: HCT-15 colon
[14] = system: HL-60(TB) leukemia
[15] = system: HOP-18 NSCLC
[16] = system: HOP-62 NSCLC
[17] = system: HOP-92 NSCLC
[18] = system: HT29 colon
[19] = system: IGROV1 ovarian
[20] = system: K-562 leukemia
[21] = system: KM12 colon
[22] = system: KM20L2 colon
[23] = system: LOX IMVI melanoma
[24] = system: LXFL 529 NSCLC
[25] = system: M14 melanoma
[26] = system: M19-MEL melanoma
[27] = system: MALME-3M melanoma
[28] = system: MOLT-4 leukemia
[29] = system: NCI-H226 lung
[30] = system: NCI-H23 lung
[31] = system: NCI-H460 lung
[32] = system: NCI-H522 lung
[33] = system: OVCAR-3 ovarian
[34] = system: OVCAR-4 ovarian
[35] = system: OVCAR-5 ovarian
[36] = system: OVCAR-8 ovarian
[37] = system: RPMI-8226 leukemia
[38] = system: RXF 393 renal
[39] = system: RXF-631 renal
[40] = system: SF-268 CNS
[41] = system: SF-295 CNS
[42] = system: SF-539 CNS
[43] = system: SK-MEL-28 melanoma
[44] = system: SK-MEL-5 melanoma
[45] = system: SK-OV-3 ovarian
[46] = system: SN12C renal
[47] = system: SNB-19 CNS
[48] = system: SNB-75 CNS
[49] = system: SR leukemia
[50] = system: SW-620 colon
[51] = system: TK-10 renal
[52] = system: U251 CNS
[53] = system: UACC-257 melanoma
[54] = system: UACC-62 melanoma
[55] = system: UO-31 renal
[56] = system: XF 498 CNS
[57] = system: SK-MEL-2 melanoma
[58] = system: DMS 273 small cell lung

Compound: N#CC(/C(CCCC(=O)Nc1cccc([N+](=O)[O-])c1)=N/NC(=O)c1cc2ccccc2cc1O)c1ccccc1 (configuration not stated)
- TGI [1]: 96.3 µM
- TGI [2]: 92.8 µM
- TGI [3]: > 100 µM
- TGI [4]: > 100 µM
- TGI [5]: > 100 µM
- TGI [6]: 43.3 µM
- TGI [7]: 46.9 µM
- TGI [8]: > 100 µM
- TGI [9]: 45.5 µM
- TGI [10]: > 100 µM
- TGI [11]: > 100 µM
- TGI [12]: > 100 µM
- TGI [13]: > 100 µM
- TGI [14]: 48.7 µM
- TGI [15]: > 100 µM
- TGI [16]: > 100 µM
- TGI [17]: 95.9 µM
- TGI [18]: > 100 µM
- TGI [19]: > 100 µM
- TGI [20]: > 100 µM
- TGI [21]: > 100 µM
- TGI [22]: > 100 µM
- TGI [23]: 49.4 µM
- TGI [24]: > 100 µM
- TGI [25]: 39.6 µM
- TGI [26]: 34.9 µM
- TGI [27]: > 100 µM
- TGI [28]: > 100 µM
- TGI [29]: > 100 µM
- TGI [30]: 61.5 µM
- TGI [31]: > 100 µM
- TGI [32]: 56.9 µM
- TGI [33]: > 100 µM
- TGI [34]: > 100 µM
- TGI [35]: > 100 µM
- TGI [36]: > 100 µM
- TGI [37]: > 100 µM
- TGI [38]: 72.3 µM
- TGI [39]: > 100 µM
- TGI [40]: > 100 µM
- TGI [41]: > 100 µM
- TGI [42]: 72.5 µM
- TGI [43]: > 100 µM
- TGI [44]: 40.8 µM
- TGI [45]: > 100 µM
- TGI [46]: > 100 µM
- TGI [47]: > 100 µM
- TGI [48]: > 100 µM
- TGI [49]: > 100 µM
- TGI [50]: > 100 µM
- TGI [51]: > 100 µM
- TGI [52]: > 100 µM
- TGI [53]: 98.5 µM
- TGI [54]: 45 µM
- TGI [55]: > 100 µM
- TGI [56]: 63 µM

Compound: [C-]#[N+][C@@H]1C2[C@H](CC[C@@]1(C)O)C(=C)CC[C@@H]2[C@@]1(C)CC[C@H](Cl)C(C)(C)O1 (some centres not stated)
- TGI [1]: 23.8 µM
- TGI [2]: 41.7 µM
- TGI [3]: 77.6 µM
- TGI [4]: 33.2 µM
- TGI [5]: 27.7 µM
- TGI [6]: 21.8 µM
- TGI [7]: 12.8 µM
- TGI [8]: 50.8 µM
- TGI [9]: 9.08 µM
- TGI [10]: 60.2 µM
- TGI [11]: 36.7 µM
- TGI [12]: 12.8 µM
- TGI [13]: 18 µM
- TGI [14]: 5.66 µM
- TGI [15]: 21.9 µM
- TGI [18]: 29.8 µM
- TGI [19]: 41.7 µM
- TGI [20]: 13.5 µM
- TGI [21]: 25 µM
- TGI [22]: > 100 µM
- TGI [23]: 16.8 µM
- TGI [24]: > 100 µM
- TGI [25]: 12.6 µM
- TGI [26]: 21.9 µM
- TGI [27]: 48.1 µM
- TGI [29]: 20.8 µM
- TGI [30]: 53.4 µM
- TGI [31]: 52.6 µM
- TGI [32]: 22.4 µM
- TGI [33]: 9.97 µM
- TGI [34]: 33.7 µM
- TGI [36]: 21 µM
- TGI [37]: 20.9 µM
- TGI [38]: 35.4 µM
- TGI [39]: > 100 µM
- TGI [40]: > 100 µM
- TGI [41]: 28.3 µM
- TGI [42]: 39.4 µM
- TGI [57]: 27.8 µM
- TGI [43]: > 100 µM
- TGI [44]: 15.7 µM
- TGI [45]: 82.6 µM
- TGI [46]: 26.3 µM
- TGI [47]: > 100 µM
- TGI [48]: > 100 µM
- TGI [50]: 31.1 µM
- TGI [51]: 84.2 µM
- TGI [52]: 36.3 µM
- TGI [53]: 45.4 µM
- TGI [54]: 20.1 µM
- TGI [55]: 7.17 µM
- TGI [56]: 26.4 µM

Compound: COc1cccc(/C=C2\CCC(CCN(C)C)(C3=CCCC3)C2=O)c1 (configuration not stated)
- TGI [1]: 27.9 µM
- TGI [2]: 30.8 µM
- TGI [3]: 32.6 µM
- TGI [4]: 30.5 µM
- TGI [5]: 25.2 µM
- TGI [6]: 40.8 µM
- TGI [7]: 21.3 µM
- TGI [8]: 36.4 µM
- TGI [9]: 31.4 µM
- TGI [58]: 28 µM
- TGI [11]: 30.4 µM
- TGI [12]: 27.7 µM
- TGI [13]: 31.1 µM
- TGI [15]: 27.2 µM
- TGI [16]: 32 µM
- TGI [17]: 28.6 µM
- TGI [18]: 29.2 µM
- TGI [19]: 32.5 µM
- TGI [20]: 36 µM
- TGI [21]: 31 µM
- TGI [23]: 30.2 µM
- TGI [24]: 28.9 µM
- TGI [25]: 27.4 µM
- TGI [26]: 30 µM
- TGI [27]: 31.2 µM
- TGI [28]: 34.1 µM
- TGI [29]: 31.2 µM
- TGI [30]: 41.4 µM
- TGI [31]: 29.9 µM
- TGI [32]: 26.9 µM
- TGI [33]: 34 µM
- TGI [34]: 30.5 µM
- TGI [35]: 28.1 µM
- TGI [36]: 32.1 µM
- TGI [37]: 41.7 µM
- TGI [38]: 21.7 µM
- TGI [39]: 43.4 µM
- TGI [40]: 45.6 µM
- TGI [41]: 31.1 µM
- TGI [42]: 29.7 µM
- TGI [57]: 29.9 µM
- TGI [43]: 31.3 µM
- TGI [44]: 32.4 µM
- TGI [46]: 28.6 µM
- TGI [47]: 31.1 µM
- TGI [48]: 35 µM
- TGI [49]: 57.4 µM
- TGI [50]: 27.1 µM
- TGI [51]: 29.3 µM
- TGI [52]: 30.6 µM
- TGI [53]: 28.8 µM
- TGI [54]: 30 µM
- TGI [55]: 26.5 µM
- TGI [56]: 31.9 µM
